Results published in patent US20050107356A1, “Combination of a CB1 receptor antagonist and of a product which activates dopaminergic neurotransmission in the brain, the pharmaceutical compositions comprising them and their use in the treatment of parkinson's disease” (Aventis Pharma S.A., priority 2001, published 2005).
Marks after values point to notes of the source that are not given here.

Columns and labels:
Format in all cases: in vivo
[1] = test system: Reserpine-treated rats; test: Reserpine-induced akinesia in the rat, locomotor activity; CB1 antagonist po one hour before quinpirole (D2 dopaminergic agonist); conditions: recorded 1 hour
Method: (§1) The synergistic effect of the combination of one or more products which activate dopaminergic neurotransmission in the brain and of one or more CB1 antagonists in the treatment of Parkinson's disease was determined in a model of akinesia induced by reserpine in the rat according to the following protocol:
(§2) Male Sprague-Dawley rats were treated with reserpine administered subcutaneously at a dose of 3 mg/kg (1 ml/kg) in order to induce akinesia in the animal. 18 hours after this treatment, the locomotor activity of these animals was measured and recorded using an automatic system (Videotrack, France). The locomotion, expressed in centimeters, is estimated by a mean overall distance covered during this period (n=11-38 rats per group). The statistical analysis is carried out by a variance analysis and a post-hoc comparison (if appropriate) using a Mann-Whitney or Dunnett test. A significant effect is recorded for p<0.05.
(§3) The studies by the oral route are carried out in a hydrophobic formulation solvent Labrafil/Labrasol (40/60%, w/w). These products are administered (in a volume of 1 ml/kg) one hour before the dopaminergic agonist. The recording of the locomotor activity begins 5 min after the intraperitoneal injection of the dopaminergic agonist and lasts 1 hour. The D1 dopaminergic agonist is 0.3 mg/kg C1-APB. The D2 dopaminergic agonist is 0.1 mg/kg quinpirole.

[2] = test system: Reserpine-treated rats; test: Reserpine-induced akinesia in the rat, locomotor activity; CB1 antagonist po one hour before C1-APB (SKF 82958, D1 dopaminergic agonist); conditions: recorded 1 hour
Method: as §1, §2, §3

[3] = test system: Reserpine-treated rats; test: Reserpine-induced akinesia in the rat, locomotor activity; CB1 antagonist i.p. co-administered with quinpirole (D2 dopaminergic agonist); conditions: CB1 antagonist 1.5 mg/kg i.p., locomotor activity recorded 1 hour
Method: as §1, §2
(§4) The results for the ip administration of the CB1 antagonists (Table 1) are expressed as percentage of increase with respect to the activity of quinpirole and as percentage of decrease with respect to the activity of a very strong dose of levodopa.
The combination of a CB1 receptor antagonist and of a D2 dopaminergic agonist (quinpirole) is produced in the following way: […]

[4] = test system: Reserpine-treated rats; test: Reserpine-induced akinesia in the rat, locomotor activity; CB1 antagonist i.p. co-administered with a strong dose of levodopa + benserazide (dyskinesia model); conditions: CB1 antagonist 3 mg/kg i.p., levodopa + benserazide 50 mg/kg, recorded 2.5 hours
Method: as §1, §2, §4
The combination of a CB1 receptor antagonist and of a strong dose of levodopa (dyskinesia model) is produced in the following way: […]

In the case of `CS(=O)(=O)C(=C1CN(C(c2ccc(Cl)cc2)c2ccc(Cl)cc2)C1)c1cc(F)cc(F)c1` [Example 1, 1-[bis(4-chlorophenyl)methyl]-3-[(3,5-difluorophenyl)(methylsulfonyl)methylene]azetidine], the “Combination with quinpirole (0.1 mg/kg ip): percentage of increase with respect to the activity of quinpirole” value ([1]; CB1 antagonist 1 mg/kg po) is reported as “+33% NS”, the “Combination with quinpirole (0.1 mg/kg ip): percentage of increase with respect to the activity of quinpirole” value ([1]; CB1 antagonist 3 mg/kg po) is reported as “+58%**” and the “Combination with quinpirole (0.1 mg/kg ip): percentage of increase with respect to the activity of quinpirole” value ([1]; CB1 antagonist 10 mg/kg po) is reported as “+23% NS”. The “Combination with C1-APB (0.3 mg/kg ip): percentage of decrease with respect to the activity of a strong dose of C1-APB” value ([2]; CB1 antagonist 1 mg/kg po) was −33% NS, the “Combination with C1-APB (0.3 mg/kg ip): percentage of decrease with respect to the activity of a strong dose of C1-APB” value ([2]; CB1 antagonist 3 mg/kg po) was −67%** and the “Combination with C1-APB (0.3 mg/kg ip): percentage of decrease with respect to the activity of a strong dose of C1-APB” value ([2]; CB1 antagonist 10 mg/kg po) was −62%**. The “Combination with quinpirole (62.5 μg/kg ip): percentage of increase with respect to the activity of quinpirole” value [3] was “+125%***” and the “Combination with levodopa (120 mg/kg ip): percentage of decrease with respect to the activity of a very strong dose of levodopa” value [4] was −42%*.
